According to patent US4987151A, “Triterpene derivatives cholesterol acyltransferase inhibitors and methods of using same” (The Trustees of Columbia University in the City of New York, priority 1989, dated 1991):

Tests used:
rats = details: cited from earlier work
J774 Macrophages = details: tissue culture macrophages (J774); cited from earlier work
ACAT enzyme = experiment: ACAT inhibitory activity, free hydroxyl compound versus ester admixture; assay type: biochemical
Description: The term "effective amount" as used herein is an amount sufficient to inhibit the ACAT enzyme from esterifying cholesterol and fatty acids to cholesteryl esters. The actual amount used varies depending on which compound or composition or admixture is used. For example, the free hydroxyl compound seems to have less activity than an admixture of the stearate and palmitate esters. The actual dosages may vary from about 0.1 mg/kg/day to about 50 mg/kg/day, and may be adjusted by a person of ordinary skill in the art to maximize effectiveness while avoiding side effects and toxicities.

Question: For `CCCCCCCN(Cc1ccc(CC(C)(C)C)cc1)C(=O)Nc1ccc(F)cc1F` [CL 277,082], which “effect on cholesterol concentrations in plasma, liver, and aorta” value (rats) is on record?
Answer: decreasing cholesterol concentrations in plasma, liver, and aorta

Question: Which “effect on foam cell formation” value (J774 Macrophages) does the source give for `CCCCCCCCCC[Si](C)(C)CCC(=O)NC(Cc1ccc(C)cc1)c1ccccc1` (stereo not drawn) [Sandoz Compound 58-035] here?
Answer: help prevent foam cell formation

Question: With `C[C@@H]1[C@H](O)CC[C@]2(C)[C@H]3CC=C4[C@@H]5C[C@](C)(C(=O)O)C[C@H](O)[C@]5(C)CC[C@@]4(C)[C@]3(C)CC[C@@H]12` [free hydroxyl compound] as the compound, how does the “activity relative to admixture of the stearate and palmitate esters” value (ACAT enzyme) read?
Answer: less activity
